This is an account of results in PubChem BioAssay AID2060355 (Molecular Pharmacology Branch, DTP, NCI, 2025).

As usually defined, the IC50 is the midpoint of a concentration-inhibition curve. One may read the viability, T/C as the ratio of treated to control.

“And” between values parts separate entries of the source, which are not always exact repeats. Equal values may be shown once.

The subject of this assay is 485368-065-R4-J2-PDC spheroids with HUVEC/MSC, viability. Nature of the assay: Anticancer human tumor 485368-065-R4-J2-PDC patient-derived pancreatic carcinoma cell line growth inhibition [TAK]. The conditions noted are these: for viability, T/C: stronger effect = lower value. In a few lines: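 Tumor cells were grown as spheroids with HUVEC and hMSC (60:25:15) and treated with targeted agents combined with TAK-243 or ipatasertib. Drugs were tested in half-log steps down from near the clinical Cmax, or from 10 microM where Cmax was unknown.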

Where [1] appears, read: curve of first compound, second compound 0.3 µM.
Setting [2] is: curve of first compound, second compound 0.949 µM.
The mark [3] stands for this setting: curve of first compound, second compound 3 µM.
[4] abbreviates: curve of first compound, second compound 9.49 µM.
Where [5] appears, read: curve of first compound, second compound 30 µM.
Where [6] appears, read: second compound 0.3 µM, first compound 0.0316 µM.
Where [7] appears, read: second compound 0.3 µM, first compound 0.1 µM.
Setting [8] is: second compound 0.3 µM, first compound 0.316 µM.
The mark [9] stands for this setting: second compound 0.3 µM, first compound 1 µM.
Where [10] appears, read: second compound 0.3 µM, first compound 3.16 µM.
[11] abbreviates: second compound 0.3 µM, first compound 10 µM.
[12] abbreviates: second compound 0.949 µM, first compound 0.0316 µM.
[13] abbreviates: second compound 0.949 µM, first compound 0.1 µM.
[14] abbreviates: second compound 0.949 µM, first compound 0.316 µM.
Where [15] appears, read: second compound 0.949 µM, first compound 1 µM.
The mark [16] stands for this setting: second compound 0.949 µM, first compound 3.16 µM.
Setting [17] is: second compound 0.949 µM, first compound 10 µM.
The mark [18] stands for this setting: second compound 3 µM, first compound 0.0316 µM.
Setting [19] is: second compound 3 µM, first compound 0.1 µM.
The mark [20] stands for this setting: second compound 3 µM, first compound 0.316 µM.
The mark [21] stands for this setting: second compound 3 µM, first compound 1 µM.
The mark [22] stands for this setting: second compound 3 µM, first compound 3.16 µM.
The mark [23] stands for this setting: second compound 3 µM, first compound 10 µM.
Where [24] appears, read: second compound 9.49 µM, first compound 0.0316 µM.
The mark [25] stands for this setting: second compound 9.49 µM, first compound 0.1 µM.
Setting [26] is: second compound 9.49 µM, first compound 0.316 µM.
Setting [27] is: second compound 9.49 µM, first compound 1 µM.
Setting [28] is: second compound 9.49 µM, first compound 3.16 µM.
Where [29] appears, read: second compound 9.49 µM, first compound 10 µM.
Where [30] appears, read: second compound 30 µM, first compound 0.0316 µM.
The mark [31] stands for this setting: second compound 30 µM, first compound 0.1 µM.
Where [32] appears, read: second compound 30 µM, first compound 0.316 µM.
The mark [33] stands for this setting: second compound 30 µM, first compound 1 µM.
[34] abbreviates: second compound 30 µM, first compound 3.16 µM.
Setting [35] is: second compound 30 µM, first compound 10 µM.
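Also: spheroids exposed to compounds for seven days before readout.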
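For viability, T/C in this document: 100% = DMSO vehicle control wells.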

As to `CC(C)(C)c1nc(-c2cccc(NS(=O)(=O)c3c(F)cccc3F)c2F)c(-c2ccnc(N)n2)s1` + CC(C)NCC(C(=O)N1CCN(c2ncnc3c2C(C)CC3O)CC1)c1ccc(Cl)cc1, the IC50 turned out to be 2660 nM under setting [1]; 589 nM under setting [2]; 432 nM under setting [3]; 353 nM under setting [4]; 305 nM under setting [5]. For the same compound, the viability, T/C is 104% under setting [6]; 92.8% under setting [7]; 71.8% under setting [8]; 52.9% under setting [9]; 50.4% under setting [10]; 47.8% under setting [11]. Further, the viability, T/C by setting is: under setting [12], 101%; under setting [13], 91.3%; under setting [14], 63.4%; under setting [15], 38.5%; under setting [16], 30.9%; under setting [17], 28.1%. For the same compound, the viability, T/C reads like this: under setting [18], 98.2%; under setting [19], 83%; under setting [20], 57.2%; under setting [21], 31.9%; under setting [22], 21.2%; under setting [23], 18%. In addition, the viability, T/C was 93.4% under setting [24]; 80.2% under setting [25]; 52.5% under setting [26]; 28.3% under setting [27]; 18.5% under setting [28]; 17.5% under setting [29]. Moreover, the viability, T/C is, setting by setting: under setting [30], 77.2%; under setting [31], 69.9%; under setting [32], 49.8%; under setting [33], 24.8%; under setting [34], 16.4%; under setting [35], 15.3%.

`CC(=O)Nc1cccc(-n2c(=O)n(C3CC3)c(=O)c3c(Nc4ccc(I)cc4F)n(C)c(=O)c(C)c32)c1`: the viability, T/C (compound 94.9 pM) is 99.6% and 93%; the viability, T/C (compound 0.0003 µM) is 77.8% and 84%; the viability, T/C (compound 0.000949 µM) was 63.6% and 75.9%; the viability, T/C (compound 0.003 µM) was 62.5% and 71%; the viability, T/C (compound 0.00949 µM) was 45.7% and 50.3%; the viability, T/C (compound 0.03 µM) was 29.4% and 30.5%. In addition, the IC50 (curve of compound) is 5.19 nM and 10.4 nM.

For `COc1c(OCCCN2CCOCC2)ccc2c3n(c(=NC(=O)c4cnc(N)nc4)nc12)CCN3`, the viability, T/C by setting is: (compound 0.00316 µM) 95.2% and 89.6%; (compound 0.01 µM) 74.6% and 75.8%; (compound 0.0316 µM) 72.5% and 70.2%; (compound 0.1 µM) 56.2% and 51.2%; (compound 0.316 µM) 32.7% and 29.9%; (compound 1 µM) 29.5% and 26.7%. Moreover, the IC50 (curve of compound) is 126 nM and 96.9 nM.

Regarding `Cc1nc(NC(=O)N2CCCC2C(N)=O)sc1-c1ccnc(C(C)(C)C(F)(F)F)c1` (stereo not given), the viability, T/C runs as follows: (compound 0.0316 µM) 100% and 99.2%; (compound 0.1 µM) 92.8% and 93%; (compound 0.316 µM) 81.5% and 77.7%; (compound 1 µM) 81.9% and 78.4%; (compound 3.16 µM) 73.4% and 71.8%; (compound 10 µM) 51% and 48.5%. Where the note is “curve of compound”, the IC50 is > 10000 nM.

In the case of `Cn1cnc2c(F)c(Nc3ccc(Br)cc3Cl)c(C(=O)NOCCO)cc21` + CC(C)NCC(C(=O)N1CCN(c2ncnc3c2C(C)CC3O)CC1)c1ccc(Cl)cc1, the IC50 runs as follows: under setting [1], 261 nM; under setting [2], 51 nM; under setting [3], 32.6 nM; under setting [4], 17.1 nM; under setting [5], 9.58 nM. In addition, the viability, T/C (second compound 0.3 µM, first compound 0.00949 µM) was 76.1%; the viability, T/C (second compound 0.3 µM, first compound 0.03 µM) was 69.6%; the viability, T/C (second compound 0.3 µM, first compound 0.0949 µM) was 59%; the viability, T/C (second compound 0.3 µM, first compound 0.3 µM) was 48.5%; the viability, T/C (second compound 0.3 µM, first compound 0.949 µM) is 37%; the viability, T/C (second compound 0.3 µM, first compound 3 µM) is 23%. In addition, the viability, T/C reads like this: (second compound 0.949 µM, first compound 0.00949 µM) 70%; (second compound 0.949 µM, first compound 0.03 µM) 56.2%; (second compound 0.949 µM, first compound 0.0949 µM) 42.9%; (second compound 0.949 µM, first compound 0.3 µM) 30.3%; (second compound 0.949 µM, first compound 0.949 µM) 21.7%; (second compound 0.949 µM, first compound 3 µM) 13.5%. In addition, the viability, T/C reads like this: (second compound 3 µM, first compound 0.00949 µM) 72.5%; (second compound 3 µM, first compound 0.03 µM) 51.6%; (second compound 3 µM, first compound 0.0949 µM) 31.2%; (second compound 3 µM, first compound 0.3 µM) 19.4%; (second compound 3 µM, first compound 0.949 µM) 13.6%; (second compound 3 µM, first compound 3 µM) 10.7%. For the same compound, the viability, T/C (second compound 9.49 µM, first compound 0.00949 µM) was 60.4%; the viability, T/C (second compound 9.49 µM, first compound 0.03 µM) was 40.6%; the viability, T/C (second compound 9.49 µM, first compound 0.0949 µM) was 24.1%; the viability, T/C (second compound 9.49 µM, first compound 0.3 µM) was 17.4%; the viability, T/C (second compound 9.49 µM, first compound 0.949 µM) was 10.9%; the viability, T/C (second compound 9.49 µM, first compound 3 µM) was 8.27%. The viability, T/C reads like this: (second compound 30 µM, first compound 0.00949 µM) 50.1%; (second compound 30 µM, first compound 0.03 µM) 33.9%; (second compound 30 µM, first compound 0.0949 µM) 21.2%; (second compound 30 µM, first compound 0.3 µM) 15.5%; (second compound 30 µM, first compound 0.949 µM) 11.1%; (second compound 30 µM, first compound 3 µM) 9.61%.

Take `CCCS(=O)(=O)Nc1ccc(F)c(C(=O)c2c[nH]c3ncc(-c4ccc(Cl)cc4)cc23)c1F`: the viability, T/C runs as follows: (compound 0.316 µM) 110% and 92.4%; (compound 1 µM) 102% and 117%; (compound 3.16 µM) 89.2% and 101%; (compound 10 µM) 43.3% and 56.3%; (compound 31.6 µM) 99.8% and 46.6%; (compound 100 µM) 91.2% and 106%. Also, the concentration for half-maximal inhibition (IC50) (curve of compound) was > 100000 nM.

As for `Cc1nc(NC(=O)N2CCCC2C(N)=O)sc1-c1ccnc(C(C)(C)C(F)(F)F)c1` (stereo not given) + CC(C)NCC(C(=O)N1CCN(c2ncnc3c2C(C)CC3O)CC1)c1ccc(Cl)cc1, the IC50 is, setting by setting: under setting [1], > 10000 nM; under setting [2], 9660 nM; under setting [3], 7350 nM; under setting [4], 2670 nM; under setting [5], 1220 nM. Also, the viability, T/C runs as follows: under setting [6], 88.2%; under setting [7], 79.8%; under setting [8], 81.9%; under setting [9], 88.3%; under setting [10], 75.9%; under setting [11], 51.1%. Further, the viability, T/C under setting [12] was 93.9%; the viability, T/C under setting [13] is 92%; the viability, T/C under setting [14] is 102%; the viability, T/C under setting [15] is 93.5%; the viability, T/C under setting [16] is 73.4%; the viability, T/C under setting [17] was 49.3%. Moreover, the viability, T/C is, setting by setting: under setting [18], 95.1%; under setting [19], 92.2%; under setting [20], 86%; under setting [21], 73.7%; under setting [22], 64.3%; under setting [23], 44.8%. Also, the viability, T/C reads like this: under setting [24], 80.3%; under setting [25], 85.2%; under setting [26], 74.1%; under setting [27], 66%; under setting [28], 46.8%; under setting [29], 37.2%. Besides, the viability, T/C runs as follows: under setting [30], 71.5%; under setting [31], 71.2%; under setting [32], 59.5%; under setting [33], 53.5%; under setting [34], 39.7%; under setting [35], 28.3%.

In the case of `CC(C)n1nc(-c2ccc3oc(N)nc3c2)c2c(N)ncnc21`, the viability, T/C is, setting by setting: (compound 0.000316 µM) 102% and 92.5%; (compound 0.001 µM) 103% and 94.1%; (compound 0.00316 µM) 89.2% and 90.2%; (compound 0.01 µM) 87.3% and 94.1%; (compound 0.0316 µM) 63.8% and 72.8%; (compound 0.1 µM) 44.3% and 46.3%. For the same compound, for the setting “curve of compound”, the IC50 was 72.5 nM and 85 nM.
